Assay results: ChEMBL document CHEMBL3045600, “Synthesis and Fungicidal Activities of Phenoxyphenyl Alkoxyiminoacetamide Derivatives” (J Pestic Sci, 1998)

Columns and labels:
Type in all cases: functional
[1] = system: Pseudoperonospora cubensis; assay: Fungicidal activity against Pseudoperonospora cubensis assessed as cucumber downy mildew disease control at 7.8 ppm foliar application 24 hr before inoculation on upper surface of leaf by preventive manner
Thanatephorus cucumeris [2] = assay: Fungicidal activity against Thanatephorus cucumeris assessed as rice sheath blight disease control at 2 ppm foliar application for 24 hr before inoculation at 26 +- 2 measured after 5 days by preventive manner
Thanatephorus cucumeris [3] = assay: Fungicidal activity against Thanatephorus cucumeris assessed as rice sheath blight disease control at 31.3 ppm foliar application for 24 hr before inoculation at 26 +- 2 measured after 5 days by preventive manner
Podosphaera fuliginea [4] = assay: Fungicidal activity against Podosphaera fuliginea assessed as cucumber powdery mildew control under greenhouse at 31.3 ppm foliar application 24 hr before inoculation on upper surface of leaf at 23 +/- 2 degC by preventive manner
[5] = system: Pseudoperonospora cubensis; assay: Fungicidal activity against Pseudoperonospora cubensis assessed as cucumber downy mildew disease control at 31.3 ppm foliar application 24 hr before inoculation on upper surface of leaf by preventive manner
Podosphaera fuliginea [6] = assay: Fungicidal activity against Podosphaera fuliginea assessed as cucumber powdery mildew control under greenhouse at 2 ppm foliar application 24 hr before inoculation on upper surface of leaf at 23 +/- 2 degC by preventive manner
Podosphaera fuliginea [7] = assay: Fungicidal activity against Podosphaera fuliginea assessed as cucumber powdery mildew control under greenhouse at 125 ppm foliar application 24 hr before inoculation on upper surface of leaf at 23 +/- 2 degC by preventive manner
[8] = system: Pseudoperonospora cubensis; assay: Fungicidal activity against Pseudoperonospora cubensis assessed as cucumber downy mildew disease control at 2 ppm foliar application 24 hr before inoculation on upper surface of leaf by preventive manner
Thanatephorus cucumeris [9] = assay: Fungicidal activity against Thanatephorus cucumeris assessed as rice sheath blight disease control at 7.8 ppm foliar application for 24 hr before inoculation at 26 +- 2 measured after 5 days by preventive manner
Podosphaera fuliginea [10] = assay: Fungicidal activity against Podosphaera fuliginea assessed as cucumber powdery mildew control under greenhouse at 7.8 ppm foliar application 24 hr before inoculation on upper surface of leaf at 23 +/- 2 degC by preventive manner
[11] = system: Pseudoperonospora cubensis; assay: Fungicidal activity against Pseudoperonospora cubensis assessed as cucumber downy mildew disease control at 125 ppm foliar application 24 hr before inoculation on upper surface of leaf by preventive manner
Thanatephorus cucumeris [12] = assay: Fungicidal activity against Thanatephorus cucumeris assessed as rice sheath blight disease control at 125 ppm foliar application for 24 hr before inoculation at 26 +- 2 measured after 5 days by preventive manner

SMILES	Activity [1] [%]	Activity (Thanatephorus cucumeris [2]) [%]	Activity (Thanatephorus cucumeris [3]) [%]	Activity (Podosphaera fuliginea [4]) [%]	Activity [5] [%]	Activity (Podosphaera fuliginea [6]) [%]	Activity (Podosphaera fuliginea [7]) [%]	Activity [8] [%]	Activity (Thanatephorus cucumeris [9]) [%]	Activity (Podosphaera fuliginea [10]) [%]	Activity [11] [%]	Activity (Thanatephorus cucumeris [12]) [%]
CNC(=O)/C(=N/O)c1ccccc1Oc1ccccc1	<70	<70	<70	<70	<70	<70	<70	<70	<70	<70	<70	<70
CO/N=C(/C(N)=O)c1ccccc1Oc1ccccc1	<70	<70	<70		<70			<70	<70		<70	<70
CNC(=O)/C(=N/OC)c1cc([N+](=O)[O-])ccc1Oc1ccccc1	<70	<70	<70	<70	<70	<70	<70	<70	<70	<70	<70	<70
CNC(=O)/C(=N/OC)c1ccccc1/C=C/c1ccccc1	70	<70	<70	70	70	70	70	70	<70	70	70	<70
CNC(=O)/C(=N/OC)c1ccccc1COc1ccccc1	<70	<70	<70	70	<70	70	70	<70	<70	70	<70	<70
CO/N=C(/C(=O)N(C)C)c1ccccc1Oc1ccccc1	<70	70	70	70	<70	70	70	<70	70	70	<70	70
CNC(=O)/C(=N/OC(C)C)c1ccccc1Oc1ccccc1	<70	<70	<70	<70	<70	<70	<70	<70	<70	<70	<70	<70
CNC(=O)/C(=N/OC)c1cc(OC)ccc1Oc1ccccc1	70	70	70	70	70	70	70	70	70	70	70	70
CNC(=O)/C(=N/OC)c1ccccc1C(=O)Oc1ccccc1	<70	<70	<70	70	<70	70	70	<70	<70	70	<70	<70
CNC(=O)/C(=N/OC)c1ccc(C)cc1Oc1ccccc1	70	70	70	70	70	70	70	70	70	70	70	70
CCNC(=O)/C(=N/OC)c1ccccc1Oc1ccccc1	<70	70	70	70	<70	70	70	<70	70	70	<70	70
CNC(=O)/C(=N/OC)c1cccc(Oc2ccccc2)c1	<70	70	70	70	<70	70	70	<70	70	70	<70	70
CNC(=O)/C(=N/OC)c1ccccc1/C=C\c1ccccc1	70	70	70	70	70	70	70	70	70	70	70	70
CNC(=O)/C(=N/OC)c1cc(F)ccc1Oc1ccccc1	70	70	70	70	70	70	70	70	70	70	70	70
CNC(=O)/C(=N/OC)c1cc(C)ccc1Oc1ccccc1	70	70	70	70	70	70	70	70	70	70	70	70
CNC(=O)/C(=N/OC)c1ccccc1CCc1ccccc1	<70	<70	<70	70	<70	70	70	<70	<70	70	<70	<70
CNC(=O)/C(=N/OC)c1ccccc1NCc1ccccc1	<70	<70	<70	<70	<70	<70	<70	<70	<70	<70	<70	<70
CNC(=O)/C(=N/OC)c1ccccc1OCc1ccccc1	70	70	70	70	70	70	70	70	70	70	70	70
